Several values for one entry are separate records, joined by “and”; a condition that tells them apart may be missing. Identical values can stand only once.
What was measured:
Assay type in all cases: functional
SNB-19 [1] = assay: Cytotoxicity against Homo sapiens (human) SNB19 cells at 10^-4 to 10^-8 M after 48 hr by SRB assay; details: SNB-19, 48 h, read-out: pTGI (converted)
SW-620 = assay: Cytotoxicity against Homo sapiens (human) SW620 cells at 10^-4 to 10^-8 M after 48 hr by SRB assay; details: SW-620, 48 h, read-out: pTGI (converted)
HT-29 [2] = assay: Cytotoxicity against Homo sapiens (human) HT-29 cells at 10^-4 to 10^-8 M after 48 hr by SRB assay; details: HT-29, 48 h, read-out: pTGI (converted)
HCT-15 = assay: Cytotoxicity against Homo sapiens (human) HCT15 cells at 10^-4 to 10^-8 M after 48 hr by SRB assay; details: HCT-15, 48 h, read-out: pTGI (converted)
HCC 2998 = assay: Cytotoxicity against Homo sapiens (human) HCC2998 cells at 10^-4 to 10^-8 M after 48 hr by SRB assay; details: HCC 2998, 48 h, read-out: pTGI (converted)
COLO 205 [3] = assay: Cytotoxicity against Homo sapiens (human) COLO205 cells at 10^-4 to 10^-8 M after 48 hr by SRB assay; details: COLO 205, 48 h, read-out: pTGI (converted)
NCI-H226 [4] = assay: Cytotoxicity against Homo sapiens (human) NCI-H226 cells at 10^-4 to 10^-8 M after 48 hr by SRB assay; details: NCI-H226, 48 h, read-out: pTGI (converted)
HOP-92 = assay: Cytotoxicity against Homo sapiens (human) HOP92 cells at 10^-4 to 10^-8 M after 48 hr by SRB assay; details: HOP-92, 48 h, read-out: pTGI (converted)
HOP-62 = assay: Cytotoxicity against Homo sapiens (human) HOP62 cells at 10^-4 to 10^-8 M after 48 hr by SRB assay; details: HOP-62, 48 h, read-out: pTGI (converted)
A549 = assay: Cytotoxicity against Homo sapiens (human) A549 cells at 10^-4 to 10^-8 M after 48 hr by SRB assay; details: A549, 48 h, read-out: pTGI (converted)
RPMI-8226 = assay: Cytotoxicity against Homo sapiens (human) RPMI8226 cells at 10^-4 to 10^-8 M after 48 hr by SRB assay; details: RPMI-8226, 48 h, read-out: pTGI (converted)
DU-145 [5] = assay: Cytotoxicity against Homo sapiens (human) DU145 cells after 48 hr by SRB assay
SK-OV-3 = assay: Cytotoxicity against Homo sapiens (human) SKOV3 cells after 48 hr by SRB assay
OVCAR-5 = assay: Cytotoxicity against Homo sapiens (human) OVCAR5 cells after 48 hr by SRB assay
SR = assay: Cytotoxicity against Homo sapiens (human) SR cells assessed as cellular growth at 10^-5 M after 48 hr by SRB assay relative to untreated control
T47D = assay: Cytotoxicity against Homo sapiens (human) T47D cells at 10^-4 to 10^-8 M after 48 hr by SRB assay; details: read-out: pTGI (converted)
Hs-578T = assay: Cytotoxicity against Homo sapiens (human) Hs578T cells at 10^-4 to 10^-8 M after 48 hr by SRB assay; details: read-out: pTGI (converted)
MDA-MB-231 = assay: Cytotoxicity against Homo sapiens (human) MDA-MB-231 cells at 10^-4 to 10^-8 M after 48 hr by SRB assay; details: MDA-MB-231, 48 h, read-out: pTGI (converted)
DU-145 [6] = assay: Cytotoxicity against Homo sapiens (human) DU145 cells at 10^-4 to 10^-8 M after 48 hr by SRB assay; details: DU-145, 48 h, read-out: pTGI (converted)
TK-10 = assay: Cytotoxicity against Homo sapiens (human) TK10 cells at 10^-4 to 10^-8 M after 48 hr by SRB assay; details: TK-10, 48 h, read-out: pTGI (converted)
A498 = assay: Cytotoxicity against Homo sapiens (human) A498 cells at 10^-4 to 10^-8 M after 48 hr by SRB assay; details: A498, 48 h, read-out: pTGI (converted)
ACHN = assay: Cytotoxicity against Homo sapiens (human) ACHN cells at 10^-4 to 10^-8 M after 48 hr by SRB assay; details: read-out: pTGI (converted)
[7] = Cytotoxicity against Homo sapiens (human) NCI-ADR-RES cells at 10^-4 to 10^-8 M after 48 hr by SRB assay; details: read-out: pTGI (converted)
OVCAR-3 = assay: Cytotoxicity against Homo sapiens (human) OVCAR3 cells at 10^-4 to 10^-8 M after 48 hr by SRB assay; details: OVCAR-3, 48 h, read-out: pTGI (converted)
UACC-62 = assay: Cytotoxicity against Homo sapiens (human) UACC62 cells at 10^-4 to 10^-8 M after 48 hr by SRB assay; details: UACC-62, 48 h, read-out: pTGI (converted)
SK-MEL-2 = assay: Cytotoxicity against Homo sapiens (human) SK-MEL-2 cells at 10^-4 to 10^-8 M after 48 hr by SRB assay; details: SK-MEL-2, 48 h, read-out: pTGI (converted)
SK-MEL-28 [8] = assay: Cytotoxicity against Homo sapiens (human) SK-MEL-28 cells at 10^-4 to 10^-8 M after 48 hr by SRB assay; details: SK-MEL-28, 48 h, read-out: pTGI (converted)
LOX IMVI = assay: Cytotoxicity against Homo sapiens (human) LOXIMVI cells at 10^-4 to 10^-8 M after 48 hr by SRB assay; details: read-out: pTGI (converted)
SK-MEL-28 [9] = assay: Cytotoxicity against Homo sapiens (human) SK-MEL-28 cells after 48 hr by SRB assay
M14 = assay: Cytotoxicity against Homo sapiens (human) M14 cells after 48 hr by SRB assay
SNB-19 [10] = assay: Cytotoxicity against Homo sapiens (human) SNB19 cells after 48 hr by SRB assay
SNB-75 = assay: Cytotoxicity against Homo sapiens (human) SNB75 cells after 48 hr by SRB assay
HT-29 [11] = assay: Cytotoxicity against Homo sapiens (human) HT-29 cells after 48 hr by SRB assay
COLO 205 [12] = assay: Cytotoxicity against Homo sapiens (human) COLO205 cells after 48 hr by SRB assay
NCI-H322M = assay: Cytotoxicity against Homo sapiens (human) NCI-H322M cells after 48 hr by SRB assay
NCI-H226 [13] = assay: Cytotoxicity against Homo sapiens (human) NCI-H226 cells after 48 hr by SRB assay
EKVX = assay: Cytotoxicity against Homo sapiens (human) EKVX cells after 48 hr by SRB assay
CCRF-CEM = assay: Cytotoxicity against Homo sapiens (human) CCRF-CEM cells after 48 hr by SRB assay

Structure (SMILES)	TGI (SNB-19 [1])	TGI (SW-620)	TGI (HT-29 [2])	TGI (HCT-15)	TGI (HCC 2998)	TGI (COLO 205 [3])	TGI (NCI-H226 [4])	TGI (HOP-92)	TGI (HOP-62)	TGI (A549)	TGI (RPMI-8226)	Activity (SR)	TGI (T47D)	TGI (Hs-578T)	TGI (MDA-MB-231)	TGI (DU-145 [6])	TGI (TK-10)	TGI (A498)	TGI (ACHN)	TGI [7]	other results
COC(=O)[C@]12CCC(C)(C)C[C@H]1C1=CC[C@@H]3[C@@]4(C)CC/C(=N\O)C(C)(C)[C@@H]4CC[C@@]3(C)[C@]1(C)CC2	69.2 µM	40.7 µM	79.4 µM	55 µM	42.7 µM	57.5 µM	66.1 µM	39.8 µM	44.7 µM	> 100 µM	> 100 µM	-41.06%	72.4 µM	66.1 µM	40.7 µM	42.7 µM	97.7 µM	63.1 µM	41.7 µM	> 100 µM	GI50 (DU-145 [5]; Homo sapiens, DU-145, 48 h): 20.4 µM; GI50 (SK-OV-3; Homo sapiens, SK-OV-3, 48 h): 40.7 µM; GI50 (OVCAR-5; Homo sapiens, OVCAR-5, 48 h): 24.5 µM; TGI (OVCAR-3): 35.5 µM; TGI (UACC-62): 56.2 µM; TGI (SK-MEL-2): > 100 µM; TGI (SK-MEL-28 [8]): 66.1 µM; TGI (LOX IMVI): 39.8 µM; GI50 (SK-MEL-28 [9]; Homo sapiens, SK-MEL-28, 48 h): 24.5 µM; GI50 (M14; Homo sapiens, M14, 48 h): 23.4 µM; GI50 (SNB-19 [10]; Homo sapiens, SNB-19, 48 h): 25.7 µM; GI50 (SNB-75; Homo sapiens, SNB-75, 48 h): 18.2 µM; GI50 (HT-29 [11]; Homo sapiens, HT-29, 48 h): 22.9 µM; GI50 (COLO 205 [12]; Homo sapiens, COLO 205, 48 h): 22.4 µM; GI50 (NCI-H322M; Homo sapiens, NCI-H322M, 48 h): 72.4 µM; GI50 (NCI-H226 [13]; Homo sapiens, NCI-H226, 48 h): 27.5 µM; GI50 (EKVX; Homo sapiens, EKVX, 48 h): 28.2 µM; GI50 (CCRF-CEM): 28.2 µM
CC1(C)CC[C@@]23CC[C@]4(C)[C@@](OC2=O)([C@@H]3C1)[C@@H](Br)C[C@@H]1[C@@]2(C)CC/C(=N\O)C(C)(C)[C@@H]2CC[C@]14C	> 100 µM	> 100 µM	> 100 µM	> 100 µM	> 100 µM	> 100 µM	> 100 µM	46.8 µM	> 100 µM	> 100 µM	> 100 µM	-62.66%	74.1 µM	24.5 µM	47.9 µM	> 100 µM	52.5 µM	> 100 µM	> 100 µM	> 100 µM	GI50 (DU-145 [5]; Homo sapiens, DU-145, 48 h): 14.1 µM; GI50 (SK-OV-3; Homo sapiens, SK-OV-3, 48 h): 30.9 µM; GI50 (OVCAR-5; Homo sapiens, OVCAR-5, 48 h): > 100 µM; TGI (OVCAR-3): 49 µM; TGI (UACC-62): > 100 µM; TGI (SK-MEL-2): > 100 µM; TGI (SK-MEL-28 [8]): > 100 µM; TGI (LOX IMVI): > 100 µM; GI50 (SK-MEL-28 [9]; Homo sapiens, SK-MEL-28, 48 h): 43.7 µM; GI50 (M14; Homo sapiens, M14, 48 h): 9.12 µM; GI50 (SNB-19 [10]; Homo sapiens, SNB-19, 48 h): 53.7 µM; GI50 (SNB-75; Homo sapiens, SNB-75, 48 h): 20.4 µM; GI50 (HT-29 [11]; Homo sapiens, HT-29, 48 h): 17.8 µM; GI50 (COLO 205 [12]; Homo sapiens, COLO 205, 48 h): 91.2 µM; GI50 (NCI-H322M; Homo sapiens, NCI-H322M, 48 h): 20 µM; GI50 (NCI-H226 [13]; Homo sapiens, NCI-H226, 48 h): 28.2 µM; GI50 (EKVX; Homo sapiens, EKVX, 48 h): 91.2 µM; GI50 (CCRF-CEM): 17.4 µM
COC(=O)[C@]12CCC(C)(C)C[C@H]1C1=CC[C@@H]3[C@@]4(C)CC/C(=N\OC(=O)/C=C5/SC(=O)NC5=O)C(C)(C)[C@@H]4CC[C@@]3(C)[C@]1(C)CC2	26.3 µM	3.89 µM	5.13 µM	11 µM	12.3 µM	5.37 µM	30.9 µM	4.68 µM	36.3 µM	17.8 µM	6.03 µM	-22.69%	18.6 µM	6.76 µM	7.59 µM	17 µM	8.13 µM	5.75 µM	3.39 µM	22.9 µM	GI50 (DU-145 [5]): 42.7 µM and 5.13 µM; GI50 (SK-OV-3): 61.7 µM and 20 µM; GI50 (OVCAR-5): 60.3 µM and 18.6 µM; TGI (OVCAR-3): 3.47 µM; TGI (UACC-62): 10.2 µM; TGI (SK-MEL-2): 17.8 µM; TGI (SK-MEL-28 [8]): 3.8 µM; TGI (LOX IMVI): 3.09 µM; GI50 (SK-MEL-28 [9]): 7.08 µM and 2.04 µM; GI50 (M14): ≥ 20 µM; GI50 (SNB-19 [10]): 56.2 µM and 12.3 µM; GI50 (SNB-75): 49 µM and 10.7 µM; GI50 (HT-29 [11]): 15.8 µM and 2.24 µM; GI50 (COLO 205 [12]): 3.47 µM; GI50 (COLO 205 [12]; Homo sapiens, COLO 205, 48 h): 2.63 µM; GI50 (NCI-H322M): 58.9 µM and 18.2 µM; GI50 (NCI-H226 [13]): ≥ 100 µM and 12.3 µM; GI50 (EKVX): 56.2 µM and 6.76 µM; GI50 (CCRF-CEM): 2.45 µM; LC50 (CCRF-CEM): 37.2 µM
